Patent US6911442B1, “Quinoline derivatives as antibacterials” (SmithKline Beecham p.l.c., priority 1999, dated 2005)
Where two headings read alike, the source gives them in different places.

System: S. aureus Oxford, S. aureus WCUH29, S. aureus Carter 37, E. faecalis I, M. catarrhalis Ravasio, S. pneumoniae R6
Experiment: MIC of test compounds against various organisms
Assay type: cell-based
Conditions: against one or more of S. aureus Oxford
Experimental: The MIC (μg/ml) of test compounds against various organisms was determined: S. aureus Oxford, S. aureus WCUH29, S. aureus Carter 37, E. faecalis I, M. catarrhalis Ravasio, S. pneumoniae R6.

MIC (read-out: MIC) [µg/mL]	MIC	SMILES
≤ 16	–	CCCCCCCN1CCN(C[C@H](O)c2ccnc3ccc(OC)cc23)[C@H](CC(=O)O)C1.O=C(O)C(F)(F)F.O=C(O)C(F)(F)F.O=C(O)C(F)(F)F [Example 11, [3R]-3-Carboxymethyl-1-heptyl-4-[2-(R)-hydroxy-2-(6-methoxyquinolin-4-yl)ethyl]piperazine tris(trifluoroacetate)]
–	less than or equal to 1 μg/ml	CCCCCCCN1CCN(CC(O)c2ccnc3ccc(OC)cc23)[C@@H](CCO)C1.O=C(O)C(=O)O.O=C(O)C(=O)O (stereo partly drawn) [Example 12, [3S]-1-Heptyl-3-[2-hydroxyetbyl]-4-[2-(R,S)hydroxy-2-(6-methoxyquinolin-4-yl)ethyl]piperazine dioxalate]
≤ 16	–	COc1ccc2nccc([C@@H](O)CN3CCN(CCCOc4ccccc4)CC3)c2c1 [Example 33, 1-(3-phenoxypropyl)-4-[2-(R)-hydroxy-2-(6-methoxyquinolin-4-yl)ethyl]piperazine]
